US20250127790A1, “COMBINATION THERAPY USING VPS34 INHIBITORS” (Deciphera Pharmaceuticals, LLC, priority 2021, published 2025)

Key:
[1] = tested on: A-498 renal cell carcinoma cells; assay: qRT-PCR with siRNA knockdown of STING pathway genes, A-498 cells; format: cell-based, Human; conditions: 24 h; for increase in mRNA expression of CCL5 / increase in mRNA expression of CXCL10 / increase in mRNA expression of IFNB1 / increase in mRNA expression of IRF7 / IFNB1, IRF7, CCL5 and CXCL10 expression with siRNA knockdown of CGAS / IFNB1, IRF7, CCL5 and CXCL10 expression with siRNA knockdown of STING: 2 μM; for IFNB1, IRF7, CCL5 and CXCL10 expression with siRNA knockdown of CGAS: siCGAS; for IFNB1, IRF7, CCL5 and CXCL10 expression with siRNA knockdown of CGAS / IFNB1, IRF7, CCL5 and CXCL10 expression with siRNA knockdown of STING / IFNB1, IRF7, CCL5 or CXCL10 expression with siRNA knockdown of TBK1: vs compound alone; for IFNB1, IRF7, CCL5 and CXCL10 expression with siRNA knockdown of STING: siSTING; for IFNB1, IRF7, CCL5 or CXCL10 expression with siRNA knockdown of TBK1: siTBK1, 2 μM
Procedure: (§1) A-498 cells were grown in Minimal Essential Medium containing 10% fetal bovine serum. Cells were then incubated for 2 days at 37 degrees Celsius, 5% CO2, and 95% humidity. A498 cells were transfected with scrambled siRNA control (siSCR) or siRNA targeting TBK1 (siTBK1), STING (siSTING) or CGAS (siCGAS). After 48 h cells were treated with DMSO or 2 μM of VPS34 inhibitor (Compound 1 or Compound 2) for 24 h. Cells were washed with PBS and RNA was isolated using the PureLink RNA kit (#12183018A, Thermo Fisher Scientific) according to the manufacturer's protocol. Genomic DNA was removed using DNA-binding columns (RNeasy plus kit, #74134, Qiagen) and/or DNase treatment (#12185010, Thermo Fisher Scientific). RNA was quantified using NanoDrop (Thermo Fisher Scientific) and 50 ng/μL RNA was used for cDNA synthesis with SuperScript IV VILO Master Mix (#11756050, Thermo Fisher Scientific). Quantitative RT-PCR (qRT-PCR) was run with diluted cDNA (1:25 or 1:12.5), PowerUp SYBR Green Master Mix (#A25741, Thermo Fisher Scientific), and 200 nM primers (see below) on a CFX Connect RT-PCR system (BioRad). Data was analyzed using the ΔΔCT method. Results are mean±SEM of three independent experiments.

[2] = tested on: 786-O renal cell carcinoma cells; assay: Cytokine secretion assay (MSD) with siRNA knockdown, 786-O cells; format: cell-based, human; conditions: 24 h; for CCL5 and CXCL10 secretion with siRNA knockdown of CGAS: siCGAS; for CCL5 and CXCL10 secretion with siRNA knockdown of CGAS / increase in CCL5 protein secretion / increase in CXCL10 protein secretion / CCL5 and CXCL10 protein secretion with siRNA knockdown of STING: 2 μM; for CCL5 and CXCL10 secretion with siRNA knockdown of CGAS / CCL5 and CXCL10 protein secretion with siRNA knockdown of STING / secretion of CCL5 or CXCL10 with siRNA knockdown of TBK1: vs compound alone; for increase in CCL5 protein secretion / increase in CXCL10 protein secretion: siRNA against non-specific controls (siSCR); for CCL5 and CXCL10 protein secretion with siRNA knockdown of STING: siSTING; for secretion of CCL5 or CXCL10 with siRNA knockdown of TBK1: siTBK1, 2 μM
Procedure: 786-O cells were transfected with scrambled siRNA control (siSCR) or siRNA targeting TBK1 (siTBK1), STING (siSTING) or CGAS (siCGAS). After 48 h cells were treated with DMSO or 2 μM of VPS34 inhibitor (Compound 1 or Compound 2) for 24 h. Cell culture medium was centrifuged at 1600 rpm for 10 min at 4° C. and obtained supernatant stored at −80° C. Cytokine levels were quantified using following Meso Scale Discovery (MSD) assays: human R-PLEX RANTES/CCL5 (#F21ZN), U-PLEX CXCL10/IP-10 (#K151UFK). Assays were run on the SECTOR Quickplex Imager and analyzed using Discovery Workbench version 4.0 (MSD).

Me30966 melanoma cells = assay: qRT-PCR with siSTING, Me30966 cells; format: cell-based, Human; conditions: 2 μM, 24 h; for increase in CCL5 mRNA expression / increase in CXCL10 mRNA expression / increase in IFNB1 mRNA expression: siSCR
Procedure: as §1, with “Me30966 cells” for “A-498 cells were grown in Minimal Essential Medium containing 10% fetal bovine serum. Cells were then incubated for 2 days at 37 degrees Celsius, 5% CO2, and 95% humidity. A498 cells”, “with siSCR” for “with scrambled siRNA control (siSCR)”, “or siSTING.” for “or siRNA targeting TBK1 (siTBK1), STING (siSTING) or CGAS (siCGAS).”, “48 h,” for “48 h”, “VPS34 inhibitors” for “VPS34 inhibitor”

[3] = tested on: CT26 colorectal cancer cells; assay: Cytokine secretion assay, combination with cGAMP, CT26 cells; format: cell-based, mouse; conditions: 24 hours, 5 μM Compound 1 or 10 μM Compound 2, 10 mg/mL cGAMP
Procedure: CT26 cells were treated for 24 hours with DMSO or VPS34 inhibitors (5 μM Compound 1 or 10 μM Compound 2) in combination with 10 mg/mL STING agonist cGAMP (green bars). Cells were washed with PBS and RNA was isolated using the PureLink RNA kit (#12183018A, Thermo Fisher Scientific) according to the manufacturer's protocol. Genomic DNA was removed using DNA-binding columns (RNeasy plus kit, #74134, Qiagen) and/or DNase treatment (#12185010, Thermo Fisher Scientific). RNA was quantified using NanoDrop (Thermo Fisher Scientific) and 50 ng/μL RNA was used for cDNA synthesis with SuperScript IV VILO Master Mix (#11756050, Thermo Fisher Scientific). Quantitative RT-PCR (qRT-PCR) was run with diluted cDNA (1:25 or 1:12.5), PowerUp SYBR Green Master Mix (#A25741, Thermo Fisher Scientific), and 200 nM primers (see below) on a CFX Connect RT-PCR system (BioRad). Data was analyzed using the ΔΔCT method. Results are mean±SEM of three independent experiments.
Cell culture medium was centrifuged at 1600 rpm for 10 min at 4° C. and obtained supernatant stored at −80° C. Cytokine levels were quantified using following Meso Scale Discovery (MSD) assays: mouse U-PLEX RANTES/CCL5 (#K152A2K) and U-PLEX IP-10/CXCL10 (#K152UFK). Assays were run on the SECTOR Quickplex Imager and analyzed using Discovery Workbench version 4.0 (MSD).

[4] = tested on: 786-O renal cell carcinoma cells; assay: qRT-PCR with siRNA knockdown of STING pathway genes, 786-O cells; format: cell-based, Human; conditions: 24 h, vs compound alone; for IFNB1, CCL5 and CXCL10 expression with siRNA knockdown of CGAS / IRF7 expression with siRNA knockdown of CGAS: siCGAS; for IFNB1, CCL5 and CXCL10 expression with siRNA knockdown of CGAS / IRF7 expression with siRNA knockdown of CGAS / IFNB1, CCL5 and CXCL10 expression with siRNA knockdown of STING / IRF7 expression with siRNA knockdown of STING: 2 μM; for IFNB1, CCL5 and CXCL10 expression with siRNA knockdown of STING / IRF7 expression with siRNA knockdown of STING: siSTING; for IFNB1 expression with siRNA knockdown of TBK1 / IRF7, CCL5 and CXCL10 expression with siRNA knockdown of TBK1: siTBK1, 2 μM

| SMILES | increase in mRNA expression of CCL5 [1] | increase in mRNA expression of CXCL10 [1] | increase in mRNA expression of IFNB1 [1] | increase in mRNA expression of IRF7 [1] | IFNB1, IRF7, CCL5 and CXCL10 expression with siRNA knockdown of CGAS [1] | IFNB1, IRF7, CCL5 and CXCL10 expression with siRNA knockdown of STING [1] | IFNB1, IRF7, CCL5 or CXCL10 expression with siRNA knockdown of TBK1 [1] | CCL5 and CXCL10 secretion with siRNA knockdown of CGAS [2] | increase in CCL5 protein secretion [2] | increase in CXCL10 protein secretion [2] | CCL5 and CXCL10 protein secretion with siRNA knockdown of STING [2] | secretion of CCL5 or CXCL10 with siRNA knockdown of TBK1 [2] | increase in CCL5 mRNA expression (Me30966 melanoma cells) | increase in CXCL10 mRNA expression (Me30966 melanoma cells) | increase in IFNB1 mRNA expression (Me30966 melanoma cells) | CCL5 mRNA increase with siSTING (Me30966 melanoma cells) | CXCL10 mRNA increase with siSTING (Me30966 melanoma cells) | IFNB1 mRNA increase with siSTING (Me30966 melanoma cells) | CCL5 protein secretion [3] | CXCL10 protein secretion [3] | further results |
| --- | --- | --- | --- | --- | --- | --- | --- | --- | --- | --- | --- | --- | --- | --- | --- | --- | --- | --- | --- | --- | --- |
| C[C@@H]1COCCN1c1cc(N2CCCC[C@@H]2C(F)(F)F)[nH]c(=O)c1 [Compound 1, 4-((R)-3-methylmorpholino)-6-((R)-2-(trifluoromethyl)piperidin-1-yl)pyridin-2(1H)-one] | > 4 fold | > 5 fold | > 5 fold | ~4 fold | complete ablation | complete ablation | moderate or negligible changes | near complete ablation | ~2 fold | ~2 fold | near complete ablation | decreased secretion | ~10 fold | ~10 fold | ~5 fold | abolished | abolished | abolished | increased | increased | IFNB1, CCL5 and CXCL10 expression with siRNA knockdown of CGAS [4]: complete ablation; IRF7 expression with siRNA knockdown of CGAS [4]: significant decreases; IFNB1, CCL5 and CXCL10 expression with siRNA knockdown of STING [4]: complete ablation; IRF7 expression with siRNA knockdown of STING [4]: significant decreases; IFNB1 expression with siRNA knockdown of TBK1 [4]: near complete ablation; IRF7, CCL5 and CXCL10 expression with siRNA knockdown of TBK1 [4]: modest decreases |
| C[C@@H]1COCCN1c1cc(=O)n2c(n1)N(Cc1cncc(Cl)c1)[C@H](C(F)(F)F)CC2 [Compound 2, (S)-9-((5-chloropyridin-3-yl)methyl)-2-((R)-3-methylmorpholino)-8-(trifluoromethyl)-6,7,8,9-tetrahydro-4H-pyrimido[1,2-a]pyrimidin-4-one] | ~8 fold | ~10 fold | > 10 fold | ~7 fold | complete ablation | complete ablation | moderate or negligible changes | near complete ablation | ~2 fold | ~2 fold | near complete ablation | decreased secretion | ~10 fold | ~10 fold | ~5 fold | abolished | abolished | abolished | increased | increased | IFNB1, CCL5 and CXCL10 expression with siRNA knockdown of CGAS [4]: complete ablation; IRF7 expression with siRNA knockdown of CGAS [4]: significant decreases; IFNB1, CCL5 and CXCL10 expression with siRNA knockdown of STING [4]: complete ablation; IRF7 expression with siRNA knockdown of STING [4]: significant decreases; IFNB1 expression with siRNA knockdown of TBK1 [4]: near complete ablation; IRF7, CCL5 and CXCL10 expression with siRNA knockdown of TBK1 [4]: modest decreases |
